For data set [1], the system named is cortical amyloid accumulation. Particulars: Tg2576 transgenic mouse model for Alzheimer's disease; R. A. Cherny et al., Neuron 2001; cited from earlier work.
In data set [2] the target is T1, Aβ1-40 (Homo sapiens, UniProt P05067).
T1 construct: Human Aβ peptides (Aβ1-40 and Aβ1-42) were synthesized; purchased W. M. Keck Foundation Biotechnology Resource Laboratory (Yale); Glabe Laboratory (UC Irvine); Multhaup Laboratory (Heidelberg); U.S. Peptide, Inc; Aldrich-Sigma; host or cells: chemical synthesis (solid-phase Fmoc)
Put plainly: Inhibition of Zn2+-induced aggregation of Aβ measured by turbidity. Particulars: Aβ1-40 10 μM, Zn2+ 25 μM, compound 25 μM, pH 7.4; FIG. 8. It is filed as biochemical. The text has this:
(§1) Human Aβ peptides (Aβ1-40 and Aβ1-42) were synthesized using solid-phase Fmoc chemistry at the W. M. Keck Foundation Biotechnology Resource Laboratory (Yale University, New Haven, Conn.); Glabe Laboratory (University of California, Irvine, Calif.); or Multhaup Laboratory (University of Heidelberg, Germany); or purchased from U.S. Peptide, Inc. (Rancho Cucamonga, Calif.); or Aldrich-Sigma (St. Louis, Mo.). The syntheses were confirmed by purification by reverse-phase HPLC, amino acid sequencing, and mass spectrometry. Synthetic Aβ peptides were dissolved in trifluoroethanol (30% in Milli-Q water (Millipore Corporation, Milford, Mass.)) or 20 mM HEPES (pH 8.5) at a concentration of […], centrifuged for 20 minutes at 10,000×g and the supernatant (stock Aβ) used for subsequent assays on the day of the experiment.
Turbidity measurements were performed as previously described (X. Huang et al., J. Biol. Chem. 1997, 272: 26464-26470). […] Subsequently, 20 μL aliquots of 10 mM of the bifunctional molecule to be tested or 10 mM Zn^2+ were added to the mixture alternatively, and following a 2 min. delay, a further four readings were taken at 1 min. intervals. After the final addition of the bifunctional molecule and turbidity reading, the mixtures were incubated for an additional 30 minutes before taking the last readings. […]

The target of data set [3] is T1, Aβ1-40. The data set can be described thus: MRI signals from spherical phantoms in the presence of Aβ1-40. It is filed as binding. Particulars: PBS pH 7.4, FIG. 11.
Excerpt: as §1
(§2) Different solution mixtures (containing a contrast imaging agent, Gd-XH1 or Gd-DTPA, in the presence or absence of Aβ1-40, Aβ1-42 or HSA in PBS, pH 7.4) were injected into 4.5-mL hollow spheres (made of polypropylene) and subjected to a 3-T magnetic scanner (Simens). Spin-Echo scanning mode was used and T1 signals were measured for each solution using 12 TR values (TE=5 ms), with R1=1/T1, and R1(obs)=R1(O)+R1 (Gd-XH1-Aβ1-40 or -Aβ1-42).

Another data set concerns the target HSA (Homo sapiens, UniProt P02768). Put plainly: MRI signals from spherical phantoms in the presence of HSA. It is filed as binding. Particulars: PBS pH 7.4, FIG. 11. The method, then: as §2
For data set [4], the system named is human SH-SY5Y neuroblastoma cells. The data set can be described thus: Neurotoxicity in neuroblastoma cells (LDH release assay). The settings on record: XH1 0, 1, 5 or 10 μM, 48 hours after treatment; FIG. 9B. It is filed as cell-based. The protocol:
The neurotoxicity of XH1 was also tested on human SH-SY5Y neuroblastoma cells. The SH-SY5Y cell line is commonly used to study neuritogenesis, differentiation, and tumorigenesis (D. Vu et al., Brain Res. Mol. Brain Res. 2003, 115: 93-103). SH-SY5Y cells were obtained from American Type Culture Collection and grown in Dulbecco's modified Eagle's medium supplemented with 10% fetal bovine serum (Gibco-BRL) and antibiotics.
Human SH-SY5Y neuroblastoma cells were incubated in the presence of XH1 (0, 1, 5 or 10 μM) (95% […], 5% CO2, 85% humidity, 37° C.) and cell viability was assessed 48 hours after treatment using the LDH release assay as described above.

The subject of data set [5] is E17 rat cortical primary neurons. Put plainly: Neurotoxicity in primary neuronal culture (LDH release and MTT assays). It is filed as cell-based. The settings on record: XH1 0, 1 or 10 μM, 48 hours after treatment; FIG. 9A. The source says: A primary neuronal culture was used to test the neurotoxicity of the parent bifunctional molecule, XH1. E17 rat cortical primary neurons were obtained from pathogen-free female Sprague-Dawley rats (purchased from Taconic Farms, Mass.) after 17 days of gestation, as described by G. J. Brewer and C. W. Cotman (in Brain Res. 1989, 494: 65-74). The protocol used allowed long-term culture of neurons at low density under precisely defined culture conditions. This protocol provided up to 90% neuronal culture. It was desirable that a small population of glial cells be co-cultured with the rat cortical primary neurons as these cells support neuronal survival. Cytosine arabinoside (1 μM) was used to control the growth of glial cells in the culture preparation. The neuronal population was checked regularly using neuron-specific enolase (and/or astroglia-specific S100β) immunohistochemistry.
E17 rat cortical primary neurons were grown under 95% […], 5% CO2, 85% humidity conditions, at 37° C. for 4 days in serum-free Neurobasal™ medium with B-27 supplement (Life Technologies, Inc.), 20 μM L-glutamate, 100 units/mL penicillin, […] streptomycin, and 2 mM L-glutamine. On the 5th day (treatment day), the medium was replaced with serum-free Neurobasal™ medium plus L-glutamine without B-27 supplement. […]

The test system of another data set is APLP2. Put plainly: Control protein synthesis by SDS-PAGE in SH-SY5Y cells. In kind it is cell-based, human. The settings on record: XH1 up to 10 μM, FIG. 10B. The protocol:
(§3) In SH-SY5Y human neuroblastoma cells, the capacity of XH1 to suppress APP synthesis was measured by SDS-PAGE. Control proteins (β-tubulin and/or two amyloid-precursor-like proteins, APLP1 and APLP2) were used to ensure target suppression specificity of the inventive bifunctional molecule.
(§4) SDS-PAGE. SH-SY5Y human neutoblastoma cells were harvested and washed with cold PBS three times and then lysed with M-PER™ mammalian protein extraction reagent (Pierce) mixed with protease inhibitor cocktails (Roche). The cell lysate was […] for 15 minutes at 13,000 rpm in a cold room, and the supernatants were BCA assayed for total protein concentrations. Protein blotting was performed on pre-casted NuPAGE™ 4-12% Bis-Tris Gel (Invitrogen) with equal protein loading (15 μg/well). It was run at 200 V for 45 minutes and transferred at 75 mA/gel for 95 minutes. The blots were probed by primary and secondary antibodies according to manufacturer's instructions and finally washed for 2-3 hours at 15 min. intervals. The blots were then developed using a chemiluminescent kit (Pierce).

For a further data set, the system named is APLP1. Described as above. It is filed as cell-based, human. Particulars: XH1 up to 10 μM, FIG. 10B. The protocol: as §3, §4
The test system of the next data set is β-tubulin. Put plainly: Control protein expression by SDS-PAGE in SH-SY5Y cells. It is filed as cell-based, human. The settings on record: same conditions as APP, FIG. 10A. The protocol:
as §3, §4

Another data set has as its system APP. Put plainly: Determination of APP protein synthesis by SDS-PAGE in SH-SY5Y cells. The settings on record: increasing XH1 concentration, 48 hours, FIG. 10A. It is filed as cell-based, human. The method, then:
as §3, §4

SMILES strings stand for the structures.

T1 sequence (P05067 672-711 limits assumed): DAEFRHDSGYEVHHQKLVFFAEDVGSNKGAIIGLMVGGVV
Chain of HSA (P02768 25-609): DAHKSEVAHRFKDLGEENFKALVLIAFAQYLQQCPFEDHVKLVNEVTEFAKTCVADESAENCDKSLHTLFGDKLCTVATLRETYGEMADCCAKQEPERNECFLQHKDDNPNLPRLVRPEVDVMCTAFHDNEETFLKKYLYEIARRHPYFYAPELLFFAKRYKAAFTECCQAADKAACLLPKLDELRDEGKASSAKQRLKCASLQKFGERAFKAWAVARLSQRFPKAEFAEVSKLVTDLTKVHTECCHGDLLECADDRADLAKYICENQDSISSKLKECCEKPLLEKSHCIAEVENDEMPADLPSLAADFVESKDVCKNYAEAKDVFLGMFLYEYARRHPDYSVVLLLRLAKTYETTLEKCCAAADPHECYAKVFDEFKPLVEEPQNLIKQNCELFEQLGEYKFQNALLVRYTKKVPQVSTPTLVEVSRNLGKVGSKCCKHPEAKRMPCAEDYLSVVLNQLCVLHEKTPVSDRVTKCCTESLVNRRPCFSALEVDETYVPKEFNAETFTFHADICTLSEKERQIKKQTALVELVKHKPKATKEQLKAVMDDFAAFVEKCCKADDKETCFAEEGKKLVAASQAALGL

For the molecule `Oc1c(I)cc(Cl)c2cccnc12` [Clioquinol], the cortical amyloid accumulation entry in data set [1] was “marked inhibition”.

`O=C(O)CN(CCN(CC(=O)O)CC(=O)O)CCN(CC(=O)O)CC(=O)O` [DTPA, diethylene triaminepentaacetic acid, reference compound]: the “Zn2+-induced aggregation of Aβ1-40 in solution (turbidity at 400 nm)” value on Aβ1-40 [2] was “significantly decrease”.

Consider `O=C([O-])CN(CCN(CC(=O)[O-])CC(=O)O)CCN(CC(=O)[O-])CC(=O)O.[Gd+3]` [Gd-DTPA], for which the “effect on MRI signal of combination with Aβ” value on Aβ1-40 [3] is on record as “No effects”. The “effect on MRI signal of combination with HSA” value at HSA is reported as “No effects”.

On to `O=C(O)CN(CCN(CC(=O)O)CC(=O)Nc1ccc(-c2nc3ccccc3s2)cc1)CCN(CC(=O)O)CC(=O)Nc1ccc(-c2nc3ccccc3s2)cc1` [XH1], for which, in [4], the “cell death (LDH release assay)” value is on record as “does not cause any significant cell death”. Besides, the “cell death (LDH release and MTT assays)” value in data set [5] was “does not induce any significant cell death”. The APLP2 synthesis result with APLP2 was “did not affect”. For the same molecule, the APLP1 synthesis entry with APLP1 was “did not affect”. Also, in the data set on β-tubulin, the β-tubulin expression result is on record as “no effects”. Further, on Aβ1-40 [2], the “Zn2+-induced aggregation of Aβ1-40 in solution (turbidity at 400 nm)” value is reported as “significantly decrease”. In addition, the APP synthesis entry with APP is recorded as “decrease in APP synthesis”.

(Values after patent US20060035946A1, “Amyloid-binding, metal-chelating agents” (The General Hospital Corporation, priority 2003, published 2006).)
